Measured values from patent US5202315A, “Cephalosporin compounds” (Lucky, Ltd., priority 1989, dated 1993).
Converted amounts (≈) assume the structure as drawn. Where two headings read alike, the source gives them in different places.

Experiments:
Assay in all cases: Antibacterial activity, MIC
Format in all cases: cell-based
[1] = system: Enterobacter aerogenes ATCC 29751; conditions: Klebsiella aerogenes, ATCC29751; ATCC 29751; agar two-fold dilution, 37° C., 20 hours; read-out: MIC
Method: (§1) Also, the in vitro antibacterial activity was determined by the by a two-fold dilution method as described below:
(§2) That is, the two-fold serial dilutions of the compound were made dispersed in Muller-Hinton agar medium. 2 μl of standard test strain which had the 10^7 CFU per ml was inoculated on the medium, and was incubated at 37° C. for 20 hours.

[2] = system: Enterobacter cloacae ATCC 27508; conditions: ATCC27508, ATCC 27508, agar two-fold dilution, 37° C., 20 hours, read-out: MIC
Method: as §1, §2

[3] = system: Shigella sonnei ATCC 11060
Method: as §1, §2

[4] = system: Proteus vulgaris ATCC 6059; conditions: ATCC6059, ATCC 6059, agar two-fold dilution, 37° C., 20 hours, read-out: MIC
Method: as §1, §2

[5] = system: Pseudomonas aeruginosa ATCC 10145; conditions: ATCC10145, ATCC 10145, agar two-fold dilution, 37° C., 20 hours, read-out: MIC
Method: as §1, §2

[6] = system: Pseudomonas aeruginosa ATCC 25619; conditions: ATCC25619, ATCC 25619, agar two-fold dilution, 37° C., 20 hours, read-out: MIC
Method: as §1, §2

[7] = system: Acinetobacter calcoaceticus ATCC 15473; conditions: ATCC15473, ATCC 15473, agar two-fold dilution, 37° C., 20 hours, read-out: MIC
Method: as §1, §2

[8] = system: Serratia marcescens ATCC 27117; conditions: ATCC27117, ATCC 27117, agar two-fold dilution, 37° C., 20 hours, read-out: MIC
Method: as §1, §2

[9] = system: Providencia rettgeri ATCC 9250; conditions: ATCC9250, agar two-fold dilution, 37° C., 20 hours
Method: as §1, §2

[10] = system: Proteus mirabilis ATCC 25933; conditions: ATCC25933, ATCC 25933, agar two-fold dilution, 37° C., 20 hours, read-out: MIC
Method: as §1, §2

[11] = system: Morganella morganii ATCC 8076h; conditions: ATCC8076H, agar two-fold dilution, 37° C., 20 hours
Method: as §1, §2

[12] = system: Staphylococcus epidermidis ATCC 12228; conditions: ATCC12228, ATCC 12228, agar two-fold dilution, 37° C., 20 hours, read-out: MIC
Method: as §1, §2

[13] = system: Klebsiella pneumoniae ATCC 10031; conditions: ATCC10031, ATCC 10031, agar two-fold dilution, 37° C., 20 hours, read-out: MIC
Method: as §1, §2

[14] = system: Pseudomonas aeruginosa ATCC 27853; conditions: ATCC27853, ATCC 27853, agar two-fold dilution, 37° C., 20 hours, read-out: MIC
Method: as §1, §2

[15] = system: Shigella flexneri ATCC 11836; conditions: ATCC11836, agar two-fold dilution, 37° C., 20 hours
Method: as §1, §2

[16] = system: Staphylococcus aureus ATCC 6538p; conditions: ATCC6538P, ATCC 6538p, agar two-fold dilution, 37° C., 20 hours, read-out: MIC
Method: as §1, §2

[17] = system: Streptococcus faecalis ATCC 29212; conditions: Enterococcus faecalis, ATCC29212; ATCC 29212; agar two-fold dilution, 37° C., 20 hours; read-out: MIC
Method: as §1, §2

[18] = system: Escherichia coli ATCC 25922; conditions: ATCC25922, agar two-fold dilution, 37° C., 20 hours
Method: as §1, §2

[19] = system: Citrobacter freundii ATCC 8090; conditions: ATCC8090, ATCC 8090, agar two-fold dilution, 37° C., 20 hours, read-out: MIC
Method: as §1, §2

[20] = system: Bacillus cereus ATCC 11778; conditions: ATCC11778, ATCC 11778, agar two-fold dilution, 37° C., 20 hours, read-out: MIC
Method: as §1, §2

[21] = system: Escherichia coli ATCC 10536; conditions: ATCC10536, agar two-fold dilution, 37° C., 20 hours
Method: as §1, §2

[22] = system: Micrococcus luteus ATCC 9341; conditions: ATCC9341, ATCC 9341, agar two-fold dilution, 37° C., 20 hours, read-out: MIC
Method: as §1, §2

[23] = system: Staphylococcus aureus ATCC 10537; conditions: ATCC10537, ATCC 10537, agar two-fold dilution, 37° C., 20 hours, read-out: MIC
Method: as §1, §2

[24] = system: Bacillus megaterium ATCC 9885; conditions: Priestia megaterium, ATCC9885; ATCC 9885; agar two-fold dilution, 37° C., 20 hours; read-out: MIC
Method: as §1, §2

[25] = system: Salmonella typhimurium ATCC 14028; conditions: Salmonella enterica; ATCC 14028; agar two-fold dilution, 37° C., 20 hours; read-out: MIC
Method: as §1, §2

[26] = ATCC11060, ATCC 11060, agar two-fold dilution, 37° C., 20 hours, read-out: MIC

Compound | MIC [1] | MIC [2] | MIC [4] | MIC [5] | MIC [6] | MIC [7] | MIC [8] | MIC [9] | MIC [10] | MIC [11] | MIC [12] | MIC [13] | MIC [14] | MIC [15] | MIC [16] | MIC [17] | MIC [18] | MIC [19] | MIC [20] | MIC [21] | also measured
CCCC[n+]1c(N)cc(N)nc1SCC1=C(C(=O)[O-])N2C(=O)C(NC(=O)/C(=N\OC(C)(C)C(=O)O)c3nsc(N)n3)C2SC1 (stereo not shown) [Compound I-29] | 1 µg/mL (≈ 1.5 µM) | 0.063 µg/mL (≈ 0.0945 µM) | 1 µg/mL (≈ 1.5 µM) | 8 µg/mL (≈ 12 µM) | 4 µg/mL (≈ 6 µM) | 32 µg/mL (≈ 48 µM) | 0.5 µg/mL (≈ 0.75 µM) | ≤ 0.008 µg/mL | 1 µg/mL (≈ 1.5 µM) | 0.016 µg/mL (≈ 0.024 µM) | 8 µg/mL (≈ 12 µM) | 0.13 µg/mL (≈ 0.195 µM) | 2 µg/mL (≈ 3 µM) | 0.13 µg/mL (≈ 0.195 µM) | 8 µg/mL (≈ 12 µM) | > 128 µg/mL | 0.25 µg/mL (≈ 0.375 µM) | 0.25 µg/mL (≈ 0.375 µM) | 128 µg/mL (≈ 192 µM) | 0.25 µg/mL (≈ 0.375 µM) | MIC [3, 26]: 0.5 µg/mL (≈ 0.75 µM); MIC [22]: 0.5 µg/mL (≈ 0.75 µM); MIC [23]: 4 µg/mL (≈ 6 µM); MIC [24]: 0.25 µg/mL (≈ 0.375 µM); MIC [25]: 0.5 µg/mL (≈ 0.75 µM)
CCO/N=C(\C(=O)NC1C(=O)N2C(C(=O)[O-])=C(CSc3nc(N)cc(N)[n+]3CC)CSC12)c1csc(N)n1 (stereo not shown) [Compound I-12] | 0.5 µg/mL (≈ 0.863 µM) | ≤ 0.008 µg/mL | 0.25 µg/mL (≈ 0.431 µM) | 8 µg/mL (≈ 13.8 µM) | 1 µg/mL (≈ 1.73 µM) | 4 µg/mL (≈ 6.9 µM) | 0.13 µg/mL (≈ 0.224 µM) | ≤ 0.008 µg/mL | 0.13 µg/mL (≈ 0.224 µM) | ≤ 0.008 µg/mL | 0.063 µg/mL (≈ 0.109 µM) | ≤ 0.008 µg/mL | 2 µg/mL (≈ 3.45 µM) | 0.031 µg/mL (≈ 0.0535 µM) | 0.25 µg/mL (≈ 0.431 µM) | 32 µg/mL (≈ 55.2 µM) | 0.13 µg/mL (≈ 0.224 µM) | 0.063 µg/mL (≈ 0.109 µM) | 16 µg/mL (≈ 27.6 µM) | 0.063 µg/mL (≈ 0.109 µM) | MIC ([3]; ATCC11060, 20 h): 0.13 µg/mL (≈ 0.224 µM); MIC [22]: ≤ 0.008 µg/mL; MIC [23]: 0.25 µg/mL (≈ 0.431 µM); MIC [24]: 0.063 µg/mL (≈ 0.109 µM); MIC [25]: 0.5 µg/mL (≈ 0.863 µM)
CC(C)(O/N=C(\C(=O)NC1C(=O)N2C(C(=O)[O-])=C(CSc3nc(N)cc(N)[n+]3-c3ccccc3)CSC12)c1csc(N)n1)C(=O)O (stereo not shown) [Compound I-35] | 0.5 µg/mL (≈ 0.729 µM) | 0.063 µg/mL (≈ 0.0919 µM) | 0.13 µg/mL (≈ 0.19 µM) | 4 µg/mL (≈ 5.83 µM) | 2 µg/mL (≈ 2.92 µM) | 16 µg/mL (≈ 23.3 µM) | 0.5 µg/mL (≈ 0.729 µM) | 0.031 µg/mL (≈ 0.0452 µM) | 0.25 µg/mL (≈ 0.365 µM) | ≤ 0.008 µg/mL | 2 µg/mL (≈ 2.92 µM) | 0.13 µg/mL (≈ 0.19 µM) | 2 µg/mL (≈ 2.92 µM) | 0.13 µg/mL (≈ 0.19 µM) | 4 µg/mL (≈ 5.83 µM) | > 128 µg/mL | 0.25 µg/mL (≈ 0.365 µM) | 0.25 µg/mL (≈ 0.365 µM) | 16 µg/mL (≈ 23.3 µM) | 0.25 µg/mL (≈ 0.365 µM) | MIC [3, 26]: 0.25 µg/mL (≈ 0.365 µM); MIC [22]: 0.25 µg/mL (≈ 0.365 µM); MIC [23]: 2 µg/mL (≈ 2.92 µM); MIC [24]: 0.5 µg/mL (≈ 0.729 µM); MIC [25]: 0.5 µg/mL (≈ 0.729 µM)
C=CC[n+]1c(N)cc(N)nc1SCC1=C(C(=O)[O-])N2C(=O)C(NC(=O)/C(=N\OCC)c3nsc(N)n3)C2SC1 (stereo not shown) [Compound I-23] | 2 µg/mL (≈ 3.37 µM) | 0.031 µg/mL (≈ 0.0523 µM) | 1 µg/mL (≈ 1.69 µM) | 16 µg/mL (≈ 27 µM) | 2 µg/mL (≈ 3.37 µM) | 8 µg/mL (≈ 13.5 µM) | 1 µg/mL (≈ 1.69 µM) | ≤ 0.008 µg/mL | 2 µg/mL (≈ 3.37 µM) | 0.031 µg/mL (≈ 0.0523 µM) | 0.25 µg/mL (≈ 0.422 µM) | 0.031 µg/mL (≈ 0.0523 µM) | 8 µg/mL (≈ 13.5 µM) | 0.13 µg/mL (≈ 0.219 µM) | 1 µg/mL (≈ 1.69 µM) | 32 µg/mL (≈ 54 µM) | 0.25 µg/mL (≈ 0.422 µM) | 0.25 µg/mL (≈ 0.422 µM) | 16 µg/mL (≈ 27 µM) | 0.5 µg/mL (≈ 0.844 µM) | MIC [3, 26]: 0.5 µg/mL (≈ 0.844 µM); MIC [22]: 0.016 µg/mL (≈ 0.027 µM); MIC [23]: 1 µg/mL (≈ 1.69 µM); MIC [24]: 0.25 µg/mL (≈ 0.422 µM); MIC [25]: 2 µg/mL (≈ 3.37 µM)
